Values joined by “and” are separate entries in the source; they are usually repeats but may differ in a detail not shown here. Identical values can stand only once. Toxic doses and inconclusive results are not listed.
Test system: P388 leukemia ip, CD2F1 mice, survival T/C
Assay: NCI In Vivo Anticancer Drug Screen. Data for tumor model P388 Leukemia (intraperitoneal) in CD2F1 (CDF1) mice
Conditions: endpoint: median survival time, higher = longer survival
Method in brief: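 Mice carrying the transplanted tumor received test compound or vehicle. Survival was recorded in each group, and the value is the treated-group measurement divided by that of the vehicle-treated control group.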

[1] = dose: 50.0 mg/kg/injection, schedule: Q01DX009 (ip), vehicle: saline with Tween-80
[2] = dose: 100.0 mg/kg/injection, schedule: Q01DX009 (ip), vehicle: saline with Tween-80
[3] = dose: 200.0 mg/kg/injection, schedule: Q01DX009 (ip), vehicle: saline with Tween-80
[4] = dose: 12.5 mg/kg/injection, schedule: Q01DX009 (ip), vehicle: Klucel (hydroxypropylcellulose) (HPC)
[5] = dose: 50.0 mg/kg/injection, schedule: Q01DX009 (ip), vehicle: Klucel (hydroxypropylcellulose) (HPC)
[6] = dose: 100.0 mg/kg/injection, schedule: Q01DX009 (ip), vehicle: Klucel (hydroxypropylcellulose) (HPC)
[7] = dose: 50.0 mg/kg/injection, schedule: Q01DX005 (ip), vehicle: saline with Tween-80
[8] = dose: 100.0 mg/kg/injection, schedule: Q01DX005 (ip), vehicle: saline with Tween-80
[9] = dose: 200.0 mg/kg/injection, schedule: Q01DX005 (ip), vehicle: saline with Tween-80
[10] = dose: 100.0 mg/kg/injection, schedule: Q04DX003 (ip), vehicle: Klucel (hydroxypropylcellulose) (HPC)
[11] = dose: 200.0 mg/kg/injection, schedule: Q04DX003 (ip), vehicle: Klucel (hydroxypropylcellulose) (HPC)
[12] = dose: 400.0 mg/kg/injection, schedule: Q04DX003 (ip), vehicle: Klucel (hydroxypropylcellulose) (HPC)
[13] = dose: 12.5 mg/kg/injection, schedule: Q01DX009 (ip), vehicle: saline with Tween-80
[14] = dose: 25.0 mg/kg/injection, schedule: Q01DX009 (ip), vehicle: saline with Tween-80
[15] = dose: 60.0 mg/kg/injection, schedule: Q01DX005 (ip), vehicle: saline
[16] = dose: 50.0 mg/kg/injection, schedule: Q01DX009 (ip), vehicle: saline
[17] = dose: 100.0 mg/kg/injection, schedule: Q01DX009 (ip), vehicle: saline

`S=c1nc[nH]c2ccc3[nH]ncc3c12` was tested, and the T/C (dose: 6.25 mg/kg/injection, schedule: Q01DX005 (ip), vehicle: saline with Tween-80) was 93 % of control, the T/C (dose: 12.5 mg/kg/injection, schedule: Q01DX005 (ip), vehicle: saline with Tween-80) was 90 % of control and the T/C (dose: 25.0 mg/kg/injection, schedule: Q01DX005 (ip), vehicle: saline with Tween-80) was 92 % of control.
`CC(=O)c1c[nH]cc1CO` was tested, and the T/C [1] was 107 % of control, the T/C [2] was 100 % of control and the T/C [3] was 98 % of control.
`CN(C)CCCNc1ccc2ccc3c(NCCCN(C)C)ccc4ccc1c2c43` was tested, and the T/C [4] was 99 % of control, the T/C (dose: 25.0 mg/kg/injection, schedule: Q01DX009 (ip), vehicle: Klucel (hydroxypropylcellulose) (HPC)) was 102 % of control and the T/C [5] was 99 % of control and 112 % of control. For the same compound, the T/C [6] was 103 % of control.
For `CC(=O)OCC1OC(n2c(Br)nc3c(=O)[nH]c(N)nc32)C(OC(C)=O)C1OC(C)=O` (centres undefined), the T/C [7] was 102 % of control, the T/C [8] was 104 % of control and the T/C [9] was 107 % of control.
For `Nc1nnc2nc(CC(=O)/C=C/c3ccccc3)/c(=C/C(=O)/C=C/c3ccccc3)n12`, the T/C (dose: 100.0 mg/kg/injection, schedule: Q04DX002 (ip), vehicle: saline with Tween-80) was 104 % of control, the T/C (dose: 200.0 mg/kg/injection, schedule: Q04DX002 (ip), vehicle: saline with Tween-80) was 107 % of control and the T/C (dose: 400.0 mg/kg/injection, schedule: Q04DX002 (ip), vehicle: saline with Tween-80) was 100 % of control.
For `COc1ccc(O)c(C(c2cc(OC)ccc2O)c2cc(OC)ccc2O)c1`, the T/C [1] was 115 % of control, the T/C [2] was 115 % of control and the T/C [3] was 115 % of control.
`O=S(=O)(O)c1ccc(OCCCCCCCCOc2ccc(S(=O)(=O)O)cc2)cc1` was tested, and the T/C (dose: 50.0 mg/kg/injection, schedule: Q01DX005 (ip), vehicle: saline) was 112 % of control, the T/C (dose: 100.0 mg/kg/injection, schedule: Q01DX005 (ip), vehicle: saline) was 109 % of control and the T/C (dose: 200.0 mg/kg/injection, schedule: Q01DX005 (ip), vehicle: saline) was 100 % of control.
In the case of `[Cu+2].[NH-]C(CC(=O)O)C(=O)O.[NH-]C(CC(=O)O)C(=O)O` (centres undefined), the T/C (dose: 7.5 mg/kg/injection, schedule: Q01DX005 (ip), vehicle: saline with Tween-80) is reported as 98 % of control, the T/C (dose: 15.0 mg/kg/injection, schedule: Q01DX005 (ip), vehicle: saline with Tween-80) is reported as 100 % of control and the T/C (dose: 30.0 mg/kg/injection, schedule: Q01DX005 (ip), vehicle: saline with Tween-80) is reported as 111 % of control.
`O=C1CC(O)(c2ccccc2)CS1` (centres undefined) was tested, and the T/C [10] was 107 % of control, the T/C [11] was 105 % of control and the T/C [12] was 100 % of control.
With `CN(C)CCOc1ccc2c(c1)C(=O)/C(=C\c1ncc([N+](=O)[O-])n1C)C2` the T/C [13] was 113 % of control, the T/C [14] was 123 % of control and 94 % of control and the T/C [1] was 121 % of control. For the same compound, the T/C [2] was 123 % of control.
In the case of `N#C/C(=C1/NC(=O)c2ccccc21)c1nc2ccccc2n1CCO`, the T/C (dose: 6.25 mg/kg/injection, schedule: Q01DX009 (ip), vehicle: saline with Tween-80) is reported as 91 % of control, the T/C [13] is reported as 92 % of control and the T/C [14] is reported as 89 % of control. The T/C [3] was 89 % of control.
For `CN(C)c1nc(=O)c2ccccc2o1`, the T/C (dose: 15.0 mg/kg/injection, schedule: Q01DX005 (ip), vehicle: saline) was 100 % of control, the T/C (dose: 30.0 mg/kg/injection, schedule: Q01DX005 (ip), vehicle: saline) was 97 % of control and the T/C [15] was 101 % of control and 95 % of control.
`O=C(Nc1ccc(C2=NCCN2)cc1)c1ccc(NC(=O)c2ccc(C3=NCCN3)cc2)cc1` was tested, and the T/C (dose: 18.0 mg/kg/injection, schedule: Q01DX010 (ip), vehicle: saline) was 154 % of control and the T/C (dose: 27.0 mg/kg/injection, schedule: Q01DX010 (ip), vehicle: saline) was 172 % of control.
In the case of `CCOC(=O)C[n+]1ccc2c([nH]c3cc(OC)ccc32)c1C`, the T/C [16] is reported as 97 % of control, the T/C [17] is reported as 112 % of control and the T/C (dose: 200.0 mg/kg/injection, schedule: Q01DX009 (ip), vehicle: saline) is reported as 110 % of control.
With `Cc1cccc(C(=O)NN)c1O` the T/C [13] was 98 % of control, the T/C [14] was 104 % of control and the T/C [1] was 104 % of control. For the same compound, the T/C [2] was 101 % of control.
For `COc1ccc(CN2COc3c(cc(Cl)c4cccnc34)C2)cc1`, the T/C [10] was 96 % of control, the T/C [11] was 104 % of control and the T/C [12] was 95 % of control.
`C[N+](C)(C)CCCOC1=Nc2ccccc2O/C1=C/c1ccccc1` was tested, and the T/C (dose: 3.12 mg/kg/injection, schedule: Q01DX009 (ip), vehicle: Klucel (hydroxypropylcellulose) (HPC)) was 96 % of control, the T/C (dose: 6.25 mg/kg/injection, schedule: Q01DX009 (ip), vehicle: Klucel (hydroxypropylcellulose) (HPC)) was 92 % of control and the T/C [4] was 98 % of control and 104 % of control.
`C=CC(C)(CCC1C(C)=CCC2C(C)(C)CCCC12C)OC1OC(C)C(O)C(O)C1O` (centres undefined) was tested, and the T/C (dose: 19.0 mg/kg/injection, schedule: Q01DX005 (ip), vehicle: Klucel (hydroxypropylcellulose) (HPC)) was 102 % of control, the T/C (dose: 20.0 mg/kg/injection, schedule: Q01DX005 (ip), vehicle: Klucel (hydroxypropylcellulose) (HPC)) was 97 % of control and the T/C (dose: 21.0 mg/kg/injection, schedule: Q01DX005 (ip), vehicle: Klucel (hydroxypropylcellulose) (HPC)) was 100 % of control. The T/C (dose: 38.0 mg/kg/injection, schedule: Q01DX005 (ip), vehicle: Klucel (hydroxypropylcellulose) (HPC)) was 101 % of control, the T/C (dose: 40.0 mg/kg/injection, schedule: Q01DX005 (ip), vehicle: Klucel (hydroxypropylcellulose) (HPC)) was 103 % of control and the T/C (dose: 42.0 mg/kg/injection, schedule: Q01DX005 (ip), vehicle: Klucel (hydroxypropylcellulose) (HPC)) was 98 % of control. The T/C (dose: 76.0 mg/kg/injection, schedule: Q01DX005 (ip), vehicle: Klucel (hydroxypropylcellulose) (HPC)) was 98 % of control, the T/C (dose: 80.0 mg/kg/injection, schedule: Q01DX005 (ip), vehicle: Klucel (hydroxypropylcellulose) (HPC)) was 98 % of control and the T/C (dose: 84.0 mg/kg/injection, schedule: Q01DX005 (ip), vehicle: Klucel (hydroxypropylcellulose) (HPC)) was 102 % of control. For the same compound, the T/C (dose: 152.0 mg/kg/injection, schedule: Q01DX005 (ip), vehicle: Klucel (hydroxypropylcellulose) (HPC)) was 108 % of control, the T/C (dose: 160.0 mg/kg/injection, schedule: Q01DX005 (ip), vehicle: Klucel (hydroxypropylcellulose) (HPC)) was 93 % of control and the T/C (dose: 168.0 mg/kg/injection, schedule: Q01DX005 (ip), vehicle: Klucel (hydroxypropylcellulose) (HPC)) was 98 % of control.
With `CCCCCCCC[N+]1([O-])CC[N+](C)([O-])CC1` (centres undefined) the T/C [15] was 100 % of control, the T/C (dose: 120.0 mg/kg/injection, schedule: Q01DX005 (ip), vehicle: saline) was 101 % of control and the T/C (dose: 240.0 mg/kg/injection, schedule: Q01DX005 (ip), vehicle: saline) was 102 % of control.
`COc1ccc(CN2C(=O)C(Cl)=C(Cl)C2=O)c(OC)c1` was tested, and the T/C (dose: 60.0 mg/kg/injection, schedule: Q01DX005 (ip), vehicle: saline with Tween-80) was 100 % of control and the T/C (dose: 120.0 mg/kg/injection, schedule: Q01DX005 (ip), vehicle: saline with Tween-80) was 94 % of control.
With `COc1cc(OC)c(-c2cc3ccc(OCc4ccccc4)cc3oc2=O)cc1OC` the T/C (dose: 100.0 mg/kg/injection, schedule: Q01DX001 (ip), vehicle: Klucel (hydroxypropylcellulose) (HPC)) was 102 % of control, the T/C (dose: 200.0 mg/kg/injection, schedule: Q01DX001 (ip), vehicle: Klucel (hydroxypropylcellulose) (HPC)) was 105 % of control and the T/C (dose: 400.0 mg/kg/injection, schedule: Q01DX001 (ip), vehicle: Klucel (hydroxypropylcellulose) (HPC)) was 94 % of control.
With `Oc1ccc(-c2csc(Nc3ccccn3)n2)cc1O` the T/C [7] was 98 % of control, the T/C [8] was 106 % of control and the T/C [9] was 104 % of control.
In the case of `O=C(CC(=O)Nc1ccccc1)Cc1ccccc1`, the T/C [5] is reported as 102 % of control, the T/C [6] is reported as 97 % of control and the T/C (dose: 200.0 mg/kg/injection, schedule: Q01DX009 (ip), vehicle: Klucel (hydroxypropylcellulose) (HPC)) is reported as 99 % of control.
In the case of `CSCCC(N)C(=O)OCN1C(=O)C2C3C=CC(C2C1=O)C1C2C(=O)N(COC(=O)C(N)CCSC)C(=O)C2C31` (centres undefined), the T/C (dose: 12.5 mg/kg/injection, schedule: Q01DX009 (ip), vehicle: saline) is reported as 117 % of control, the T/C (dose: 25.0 mg/kg/injection, schedule: Q01DX009 (ip), vehicle: saline) is reported as 122 % of control and 93 % of control and the T/C [16] is reported as 109 % of control. For the same compound, the T/C [17] was 171 % of control and 200 % of control.

From PubChem BioAssay AID330 (DTP/NCI, 2004)
